Results reported in ChEMBL document CHEMBL1201862, “PubChem BioAssay data set” (2004).
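Exposure lasted 48 hours, with cells grown in 96-well plates and compounds tested at five concentrations. At the GI50, growth is halved.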 Activity calls are given as the source filed them. Cut-off read from the data, not from the text of the source: active = GI50 up to about 1.1 µM and inactive = higher.

What was measured:
Assay in all cases: NCI anticancer screen, dose series, 48 h
CCRF-CEM = test system: CCRF-CEM
HCC 2998 = test system: HCC 2998
HL-60 = test system: HL-60
HOP-62 = test system: HOP-62
K562 = test system: K562
LOX IMVI = test system: LOX IMVI
NCI-H460 = test system: NCI-H460
OVCAR-4 = test system: OVCAR-4
OVCAR-5 = test system: OVCAR-5
OVCAR-8 = test system: OVCAR-8
RPMI-8226 = test system: RPMI-8226
SF-268 = test system: SF-268
SF-539 = test system: SF-539
SK-MEL-2 = test system: SK-MEL-2
SNB-19 = test system: SNB-19
SNB-75 = test system: SNB-75
SW-620 = test system: SW-620
UACC-257 = test system: UACC-257
UACC-62 = test system: UACC-62
CAKI-1 = test system: CAKI-1

Row | Structure (SMILES) | GI50 (CCRF-CEM) | GI50 (HCC 2998) | GI50 (HL-60) | GI50 (HOP-62) | GI50 (K562) | GI50 (LOX IMVI) | GI50 (NCI-H460) | GI50 (OVCAR-4) | GI50 (OVCAR-5) | GI50 (OVCAR-8) | GI50 (RPMI-8226) | GI50 (SF-268) | GI50 (SF-539) | GI50 (SK-MEL-2) | GI50 (SNB-19) | GI50 (SNB-75) | GI50 (SW-620) | GI50 (UACC-257) | GI50 (UACC-62) | GI50 (CAKI-1)
1 | Nc1c(S(=O)(=O)O)cc2cc(S(=O)(=O)O)ccc2c1/N=N/c1ccc(-c2ccc(/N=N/c3c(N)c(S(=O)(=O)O)cc4cc(S(=O)(=O)O)ccc34)c(S(=O)(=O)O)c2)cc1 | > 89.3 µM (inactive) | > 100 µM (inactive) | > 71.1 µM (inactive) | > 100 µM (inactive) | > 100 µM (inactive) | > 100 µM (inactive) | > 31.6 µM (inactive) | 29.4 µM (inactive) | > 100 µM (inactive) | > 100 µM (inactive) | > 100 µM (inactive) | > 100 µM (inactive) | > 100 µM (inactive) | > 100 µM (inactive) | > 100 µM (inactive) | 85.5 µM (inactive) | > 100 µM (inactive) | > 100 µM (inactive) | > 100 µM (inactive) | 
2 | CC(C)N1CSC(=S)N(Cc2ccccc2)C1 | 2.78 µM (inactive) | > 10 µM (inactive) | 0.197 µM (active) | > 10 µM (inactive) | 2.48 µM (inactive) | 3.66 µM (inactive) | > 10 µM (inactive) | > 10 µM (inactive) |  | 4.75 µM (inactive) | 2.58 µM (inactive) | 4.38 µM (inactive) | 1.48 µM (inactive) |  | 0.752 µM (active) | 2.8 µM (inactive) | 3.18 µM (inactive) |  | 4.06 µM (inactive) | 
3 | COc1cccc2[s+]snc12 | > 10 µM (inactive) | > 100 µM (inactive) | 23.9 µM (inactive) | 61.7 µM (inactive) | 25.7 µM (inactive) | 33.6 µM (inactive) | 68.4 µM (inactive) | 43.9 µM (inactive) | > 100 µM (inactive) | 26.9 µM (inactive) |  | 34.1 µM (inactive) | 35.8 µM (inactive) | 27.2 µM (inactive) | 50.6 µM (inactive) | 69.3 µM (inactive) | 29.4 µM (inactive) | 30.1 µM (inactive) | 25.1 µM (inactive) | 66.1 µM (inactive)
4 | Cn1c(-c2cccs2)cc(-c2cccs2)c1-c1ccco1 | 28.8 µM (inactive) | 26.6 µM (inactive) | 23.9 µM (inactive) | > 92 µM (inactive) | 10.2 µM (inactive) | 22.7 µM (inactive) | 38.7 µM (inactive) | 1.7 µM (inactive) | > 100 µM (inactive) | > 100 µM (inactive) | 31 µM (inactive) | > 66.4 µM (inactive) | > 100 µM (inactive) | 30.3 µM (inactive) | > 100 µM (inactive) | 31.8 µM (inactive) | 50.5 µM (inactive) | 39.9 µM (inactive) | 30.9 µM (inactive) | 11.4 µM (inactive)
5 | CC1(C)C(N2CCOCC2)CS1(=O)=O (stereo not drawn) | > 10 µM (inactive) | > 10 µM (inactive) | > 10 µM (inactive) | > 10 µM (inactive) | > 10 µM (inactive) | > 10 µM (inactive) | > 10 µM (inactive) | > 10 µM (inactive) | > 10 µM (inactive) | > 10 µM (inactive) | > 10 µM (inactive) | > 10 µM (inactive) | > 10 µM (inactive) | > 10 µM (inactive) | > 10 µM (inactive) | 4.98 µM (inactive) | > 10 µM (inactive) | > 10 µM (inactive) | > 10 µM (inactive) | > 10 µM (inactive)
6 | CC1=C(C(=O)Nc2cccc(Cl)c2)C(c2ccccc2O)C(C(=O)Nc2cccc(Cl)c2)=C(C)N1 | 22.3 µM (inactive) | 18.9 µM (inactive) | 21 µM (inactive) | 19.3 µM (inactive) | 22.4 µM (inactive) | 21.8 µM (inactive) | 21.6 µM (inactive) | 18.3 µM (inactive) | 19.4 µM (inactive) | 25.2 µM (inactive) | 20.7 µM (inactive) | 17.7 µM (inactive) | 16.7 µM (inactive) | 16.1 µM (inactive) | 26.1 µM (inactive) | 14.9 µM (inactive) | 18.6 µM (inactive) | 20.2 µM (inactive) |  | 22 µM (inactive)
7 | CCOC(=O)C1=C(C)N(NC(N)=O)C2(O)CCCC(=O)C12C (stereo not drawn) |  | > 100 µM (inactive) |  |  |  | > 100 µM (inactive) |  | > 100 µM (inactive) | > 100 µM (inactive) | > 100 µM (inactive) | > 100 µM (inactive) |  | > 100 µM (inactive) | > 100 µM (inactive) | > 100 µM (inactive) | > 100 µM (inactive) | > 100 µM (inactive) | > 100 µM (inactive) | > 100 µM (inactive) | > 100 µM (inactive)
8 | Cc1cc(N(CCOS(C)(=O)=O)CCOS(C)(=O)=O)ccc1C=O | 1.08 µM (active) | 4.65 µM (inactive) | 2.98 µM (inactive) |  | 9.93 µM (inactive) | 6.68 µM (inactive) | 0.078 µM (active) | 18.2 µM (inactive) | 6.7 µM (inactive) | 10.9 µM (inactive) | 4.02 µM (inactive) | 6.56 µM (inactive) | < 0.01 µM (active) | 21.1 µM (inactive) | 10.2 µM (inactive) |  | 0.449 µM (active) | 11.7 µM (inactive) | 2.43 µM (inactive) | 0.127 µM (active)
9 | O=C(NN1C(=O)C(Cl)C1c1ccc([N+](=O)[O-])cc1)c1ccccc1O (stereo not drawn) | > 100 µM (inactive) |  | > 100 µM (inactive) | > 100 µM (inactive) | > 100 µM (inactive) |  | > 100 µM (inactive) | > 100 µM (inactive) | > 100 µM (inactive) | > 100 µM (inactive) | > 100 µM (inactive) | > 100 µM (inactive) | > 100 µM (inactive) | > 100 µM (inactive) | 68.1 µM (inactive) | 51.8 µM (inactive) | > 100 µM (inactive) | > 100 µM (inactive) | > 100 µM (inactive) | 
10 | CCOC(=O)C1=C(C)N(c2ccc(OC)cc2)C2(O)C=CC(O)=C3C(=O)c4ccccc4C(=O)C312 (stereo not drawn) | 3.4 µM (inactive) |  | 5.93 µM (inactive) | 13.8 µM (inactive) | 12.6 µM (inactive) | 7.16 µM (inactive) | 11.5 µM (inactive) | 2.99 µM (inactive) | 15.8 µM (inactive) | 14.9 µM (inactive) | 2.44 µM (inactive) | 2.13 µM (inactive) | 6.92 µM (inactive) | 16.3 µM (inactive) | 13 µM (inactive) |  | 13.5 µM (inactive) | 15.7 µM (inactive) | 12.5 µM (inactive) | 8.38 µM (inactive)
11 | CC1(c2sccc2Cl)CC(c2sccc2Cl)=C(C#N)C(=C(C#N)C#N)N1 (stereo not drawn) | 38.4 µM (inactive) | 14.5 µM (inactive) | 34.2 µM (inactive) | 19.3 µM (inactive) |  | 19.2 µM (inactive) | 19 µM (inactive) | 25.1 µM (inactive) | 22.3 µM (inactive) | 20.8 µM (inactive) | 36.1 µM (inactive) | 20.2 µM (inactive) | 19.8 µM (inactive) | 20.3 µM (inactive) | 18.3 µM (inactive) |  | 18.8 µM (inactive) | 22.4 µM (inactive) | 18.3 µM (inactive) | 20.2 µM (inactive)
12 | S=CN1CCCCC1 | > 100 µM (inactive) | > 100 µM (inactive) | > 100 µM (inactive) | > 100 µM (inactive) | > 100 µM (inactive) | > 100 µM (inactive) | > 100 µM (inactive) |  | > 100 µM (inactive) | > 100 µM (inactive) | > 100 µM (inactive) | > 100 µM (inactive) | > 100 µM (inactive) | > 100 µM (inactive) | > 100 µM (inactive) | > 100 µM (inactive) | > 100 µM (inactive) | > 100 µM (inactive) | > 100 µM (inactive) | > 100 µM (inactive)
13 | N#C/C(=C\NC(=S)Nc1ccc(S(=O)(=O)Nc2ccccn2)cc1)C(N)=O | 42.2 µM (inactive) |  |  | > 100 µM (inactive) | 47.9 µM (inactive) | > 100 µM (inactive) | > 100 µM (inactive) | > 100 µM (inactive) | > 100 µM (inactive) | > 100 µM (inactive) | > 100 µM (inactive) | > 100 µM (inactive) | > 100 µM (inactive) | > 100 µM (inactive) | > 100 µM (inactive) | 61.8 µM (inactive) | > 100 µM (inactive) | > 100 µM (inactive) | > 100 µM (inactive) | > 100 µM (inactive)
14 | Nc1nc2cc(COc3ccc(C(=O)O)cc3)ccc2nc1-c1ccccc1 | > 10 µM (inactive) | > 10 µM (inactive) | > 10 µM (inactive) | > 10 µM (inactive) | > 10 µM (inactive) | > 10 µM (inactive) | > 10 µM (inactive) | > 10 µM (inactive) | > 10 µM (inactive) |  | > 10 µM (inactive) | > 10 µM (inactive) | > 10 µM (inactive) | > 10 µM (inactive) | > 10 µM (inactive) | > 10 µM (inactive) | > 10 µM (inactive) | > 10 µM (inactive) | > 10 µM (inactive) | > 10 µM (inactive)
15 | CC(=O)NC(c1nc2cc(C)c(C)cc2[nH]1)c1nc2cc(C)c(C)cc2[nH]1 | 7.05 µM (inactive) | 16.9 µM (inactive) | 28.2 µM (inactive) |  | 1.02 µM (active) | 19 µM (inactive) | 11.7 µM (inactive) | 21.9 µM (inactive) | 41.7 µM (inactive) | 20 µM (inactive) | 4.57 µM (inactive) | 23.2 µM (inactive) | 14.1 µM (inactive) | 36.8 µM (inactive) | 41.5 µM (inactive) | 22.1 µM (inactive) | 22.3 µM (inactive) | 21.3 µM (inactive) | 32.7 µM (inactive) | 20.3 µM (inactive)
